Data: US20250049891A1, “NOVEL PEPTIDE DERIVATIVE DERIVED FROM ADIPONECTIN AND USE THEREOF” (SEOUL NATIONAL UNIVERSITY HOSPITAL, priority 2021, published 2025)
≈ marks a conversion by molar mass, not a printed value. Square brackets hold non-standard residues; d marks the D form. Peptide text beside a SMILES is read from it. Phe(4-Cl) = N[CH](Cc1ccc(Cl)cc1)C(=O)O; Phe(4-F) = N[CH](Cc1ccc(F)cc1)C(=O)O

How the values were obtained:
AMPK phosphorylation [1] = test: AMPK phosphorylation activity in mouse adipocytes (Western blot); type: cell-based; details: 3T3-L1, 10 μM, 24 hours; for AMPK phosphorylation activity (fold change): APN5 = 1.0
Experimental: There were confirmed effects of the peptide derivatives of the present disclosure on the expression and receptor activity of adiponectin in mouse adipocytes as a main adiponectin production site. A mouse adipocyte cell line 3T3-L1 was treated with each of the peptide derivatives of the present disclosure at a concentration of 10 μM and cultured for 24 hours, and then cells were obtained. Thereafter, the proteins were extracted and the effect on AMPK phosphorylation, which was responsible for the main downstream signaling of adiponectin, was confirmed by Western blot.

[2] = Metabolic stability test, rat liver microsomes; type: in vitro ADME; details: NADPH, 37° C.; for remaining at 0.5 h, 1 μM: pH 7.4, rat liver microsomes 0.5 mg/ml, 30 m
[3] = Metabolic stability test, mouse liver microsomes; type: in vitro ADME; details: NADPH, 37° C.; for remaining at 0.5 h, 1 μM: pH 7.4, mouse liver microsomes 0.5 mg/ml, 30 m
CYP1A2 = target: T1, CYP1A2 (Homo sapiens, UniProt P05177); details: microsomes, 10 µM
T1 sequence (P05177 1-516): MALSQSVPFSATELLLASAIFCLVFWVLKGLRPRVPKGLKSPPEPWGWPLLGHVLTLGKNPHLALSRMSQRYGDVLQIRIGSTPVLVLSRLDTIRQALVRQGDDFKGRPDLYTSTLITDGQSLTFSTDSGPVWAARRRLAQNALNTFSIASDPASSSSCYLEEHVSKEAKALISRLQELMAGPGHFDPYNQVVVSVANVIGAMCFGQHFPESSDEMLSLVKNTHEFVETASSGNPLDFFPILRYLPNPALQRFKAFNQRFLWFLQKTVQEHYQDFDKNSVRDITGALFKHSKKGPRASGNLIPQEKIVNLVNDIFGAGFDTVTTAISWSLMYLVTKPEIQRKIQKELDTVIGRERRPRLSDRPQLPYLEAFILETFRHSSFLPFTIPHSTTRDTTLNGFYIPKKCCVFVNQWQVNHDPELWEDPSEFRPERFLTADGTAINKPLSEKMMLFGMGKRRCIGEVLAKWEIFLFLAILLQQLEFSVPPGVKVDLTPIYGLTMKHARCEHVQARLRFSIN
Experimental: (§1) Metabolites of each CYP isoenzyme indicator drug produced through the reaction were analyzed by LC-MS/MS using the Shimadzu Nexera XR system and TSQ vantage (Thermo).

CYP2C19 = CYP2C19 (Homo sapiens, UniProt P33261); details: microsomes, 10 µM
Experimental: as §1

CYP2C9 = CYP2C9 (Homo sapiens, UniProt P11712); details: microsomes, 10 µM
Experimental: as §1

CYP2D6 = CYP2D6 (Homo sapiens, UniProt P10635); details: microsomes, 10 µM
Experimental: as §1

CYP3A4 = CYP3A4 (Homo sapiens, UniProt P08684); details: microsomes, 10 µM
Experimental: as §1

in vitro [4] = details: human, plasma
in vitro [5] = details: human, microsomes, pH 7.4
Solubility test = details: kinetic from dmso stock
[6] = Plasma stability test, rat plasma; details: for remaining at 0.5 h, 1 μM / remaining at 2 h, 1 μM: rat, plasma
AMPK phosphorylation [7] = test: Concentration dependence of AMPK phosphorylation activity (Western blot); type: cell-based, mouse; details: 3T3-L1, 0, 0.01, 0.1, 1, 10, and 100 μM, 24 hours
Experimental: A mouse adipocyte cell line 3T3-L1 was treated with the peptide derivative of the present disclosure at a series of concentrations of 0, 0.01, 0.1, 1, 10, and 100 μM and cultured for 24 hours, and then cells were obtained. Thereafter, the protein was extracted and the effect of the peptide derivative on AMPK phosphorylation in a concentration-dependent manner was confirmed by Western blot.

physchem = details: pH 7.4, aqueous buffer, kinetic from dmso stock
in vitro [8] = details: rat, plasma
[9] = Plasma stability test, human plasma; details: for remaining at 0.5 h, 1 μM / remaining at 2 h, 1 μM: human, plasma
[10] = Metabolic stability test, human liver microsomes; details: for remaining at 0.5 h, 1 μM: human, microsomes, pH 7.4
adiponectin receptor 1 = target: T2, adiponectin receptor 1 (Mus musculus, UniProt Q91VH1); test: AMPK phosphorylation activity after knockdown of adiponectin receptor 1 (siRNA, Western blot); type: cell-based; details: 3T3-L1, adiponectin receptor 1 siRNA, 10 μM, 24 hours
T2 construct: a mouse adipocyte cell line 3T3-L1 was treated with siRNA of an adiponectin receptor 1 to be knocked down; endogenous in cells; host or cells: 3T3-L1 mouse adipocyte cell line
T2 sequence (Q91VH1 1-375): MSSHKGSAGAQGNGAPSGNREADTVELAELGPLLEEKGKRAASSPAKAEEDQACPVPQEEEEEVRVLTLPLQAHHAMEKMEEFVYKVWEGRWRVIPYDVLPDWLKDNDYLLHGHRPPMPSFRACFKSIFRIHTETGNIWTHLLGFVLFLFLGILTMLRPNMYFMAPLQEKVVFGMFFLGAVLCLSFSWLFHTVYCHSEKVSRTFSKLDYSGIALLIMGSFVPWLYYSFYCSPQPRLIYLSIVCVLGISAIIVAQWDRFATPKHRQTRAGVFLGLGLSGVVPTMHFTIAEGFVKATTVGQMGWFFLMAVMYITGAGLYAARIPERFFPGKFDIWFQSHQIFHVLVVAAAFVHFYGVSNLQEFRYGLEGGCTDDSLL
Experimental: In order to verify whether the peptide derivative of the present disclosure bound to an adiponectin receptor 1, a mouse adipocyte cell line 3T3-L1 was treated with siRNA of an adiponectin receptor 1 to be knocked down, and each of the peptide derivatives of the present disclosure was treated at 10 μM and cultured for 24 hours, and then cells were obtained. Thereafter, the proteins were extracted and it was confirmed by Western blot whether AMPK phosphorylation activity, which had been increased by the peptide derivatives, was lost.

[11] = test system: 3T3-L1 adipocytes, RD muscle cells, keratinocytes, and fibroblasts; test: Cytotoxicity in vitro (MTT); type: cell-based; details: 0, 0.1, 1, 10, 100, and 500 μM, 24 hours
[12] = PRISMA HT buffer, pH 7.4, aqueous buffer

CYP2C19, sequence (P33261 whole entry): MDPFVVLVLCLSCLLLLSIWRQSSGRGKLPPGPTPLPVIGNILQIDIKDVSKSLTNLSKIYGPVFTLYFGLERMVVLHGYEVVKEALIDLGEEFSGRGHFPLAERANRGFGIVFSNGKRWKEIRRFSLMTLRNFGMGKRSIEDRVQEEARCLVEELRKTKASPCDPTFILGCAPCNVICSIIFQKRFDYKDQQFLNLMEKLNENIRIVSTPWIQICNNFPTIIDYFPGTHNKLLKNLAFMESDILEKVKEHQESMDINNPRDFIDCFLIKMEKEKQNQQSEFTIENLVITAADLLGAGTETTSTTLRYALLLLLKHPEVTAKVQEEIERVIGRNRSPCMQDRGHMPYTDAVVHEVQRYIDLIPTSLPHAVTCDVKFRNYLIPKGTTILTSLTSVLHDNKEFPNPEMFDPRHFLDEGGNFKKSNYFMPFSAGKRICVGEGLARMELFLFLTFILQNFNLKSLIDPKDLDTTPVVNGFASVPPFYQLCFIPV
CYP2D6, sequence (P10635 whole entry): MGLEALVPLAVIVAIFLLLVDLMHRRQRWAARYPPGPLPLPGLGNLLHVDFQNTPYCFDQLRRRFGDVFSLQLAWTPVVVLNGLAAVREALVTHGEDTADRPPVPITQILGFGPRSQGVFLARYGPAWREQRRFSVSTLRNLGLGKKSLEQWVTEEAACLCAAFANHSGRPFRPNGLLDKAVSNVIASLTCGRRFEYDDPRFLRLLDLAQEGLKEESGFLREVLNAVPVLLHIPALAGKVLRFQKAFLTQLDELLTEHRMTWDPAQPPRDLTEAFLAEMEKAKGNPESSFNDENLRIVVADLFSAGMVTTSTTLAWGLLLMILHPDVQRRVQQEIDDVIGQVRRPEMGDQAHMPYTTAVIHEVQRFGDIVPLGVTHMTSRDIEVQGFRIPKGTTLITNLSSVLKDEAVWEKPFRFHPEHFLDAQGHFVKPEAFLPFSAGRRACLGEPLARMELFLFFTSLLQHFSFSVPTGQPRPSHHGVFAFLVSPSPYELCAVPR
CYP3A4, sequence (P08684 whole entry): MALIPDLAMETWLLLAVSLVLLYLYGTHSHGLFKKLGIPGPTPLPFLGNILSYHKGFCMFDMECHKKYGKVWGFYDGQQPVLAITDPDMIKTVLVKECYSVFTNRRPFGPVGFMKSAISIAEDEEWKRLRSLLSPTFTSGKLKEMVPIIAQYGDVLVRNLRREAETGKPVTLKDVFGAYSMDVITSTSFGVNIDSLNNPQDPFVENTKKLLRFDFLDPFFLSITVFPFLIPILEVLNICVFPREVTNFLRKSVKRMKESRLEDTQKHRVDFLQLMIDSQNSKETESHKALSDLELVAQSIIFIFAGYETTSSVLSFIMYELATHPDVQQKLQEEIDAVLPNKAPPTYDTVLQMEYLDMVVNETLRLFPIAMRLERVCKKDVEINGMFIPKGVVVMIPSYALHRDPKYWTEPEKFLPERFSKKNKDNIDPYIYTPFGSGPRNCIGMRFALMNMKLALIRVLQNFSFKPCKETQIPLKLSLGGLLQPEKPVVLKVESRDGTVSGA
CYP2C9, sequence (P11712 whole entry): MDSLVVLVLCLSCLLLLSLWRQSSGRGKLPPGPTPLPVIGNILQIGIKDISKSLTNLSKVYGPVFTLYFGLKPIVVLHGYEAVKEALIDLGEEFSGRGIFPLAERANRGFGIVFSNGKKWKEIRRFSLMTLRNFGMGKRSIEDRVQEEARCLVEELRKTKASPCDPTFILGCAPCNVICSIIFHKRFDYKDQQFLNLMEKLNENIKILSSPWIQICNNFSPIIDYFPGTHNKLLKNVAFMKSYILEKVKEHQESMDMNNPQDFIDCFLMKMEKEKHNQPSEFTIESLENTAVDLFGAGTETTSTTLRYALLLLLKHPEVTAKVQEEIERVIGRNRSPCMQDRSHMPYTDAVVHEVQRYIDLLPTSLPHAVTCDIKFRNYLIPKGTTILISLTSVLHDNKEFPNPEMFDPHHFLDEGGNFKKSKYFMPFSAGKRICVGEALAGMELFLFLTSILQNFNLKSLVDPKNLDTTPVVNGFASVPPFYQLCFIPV

Compound | CYP inhibition (% of control activity) CYP2C19 (CYP2C19) | CYP inhibition (% of control activity) CYP2D6 (CYP2D6) | CYP inhibition (% of control activity) CYP3A4 (CYP3A4) | solubility kinetic at 24 h (Solubility test; [12]) [µg/mL] | AMPK phosphorylation activity (fold change) (AMPK phosphorylation [1]) | remaining at 0.5 h, 1 μM [2] [%] | remaining at 0.5 h, 1 μM [3] [%] | remaining at 0.5 h, 1 μM [6] [%] | remaining at 2 h, 1 μM [6] [%] | AMPK phosphorylation activity compared to APN5 (in words) (AMPK phosphorylation [1]) | AMPK phosphorylation activity after knockdown of the adiponectin receptor 1 (adiponectin receptor 1) | other results
CC(C)C[C@H](NC(=O)CN)C(=O)N[C@@H](Cc1ccc(O)cc1)C(=O)N[C@@H](Cc1ccc(O)cc1)C(=O)N[C@@H](Cc1ccccc1)C(=O)O [APN5, NH2-GLYYF-OH, reference compound] | 98.5 % of control activity | 92.3 % of control activity | 82.9 % of control activity | 8.2 (≈ 12.4 µM) | 1.0 | 1.3 | 9.5 | 83.1 | 70.5 | – | – | CYP inhibition (% of control activity) CYP1A2 (CYP1A2): 88.8 % of control activity; CYP inhibition (% of control activity) CYP2C9 (CYP2C9): >100 % of control activity; remaining at 0.5 h, 1 μM (in vitro [4]): < 1%; remaining at 2 h, 1 μM (in vitro [4]): < 1%; remaining at 0.5 h, 1 μM (in vitro [5]): 1.7%
CC(=O)NC(CC(=O)O)C(=O)NC(Cc1ccc(O)cc1)C(=O)NC(Cc1ccc(O)cc1)C(=O)NC(Cc1ccccc1)C(=O)O (stereo not drawn) [DS-28, AcNH-DYYF-OH] (Ac-DYYF-OH; configuration not given here) | 87.2 % of control activity | 86.1 % of control activity | 95.5 % of control activity | – | 1.9 | 85.8 | 96.6 | – | – | – | – | concentration dependence of AMPK phosphorylation activity (AMPK phosphorylation [7]): increased AMPK phosphorylation activity in a concentration-dependent manner; CYP inhibition (% of control activity) CYP1A2 (CYP1A2): 81.7 % of control activity; CYP inhibition (% of control activity) CYP2C9 (CYP2C9): 96.9 % of control activity; solubility at 24 h (physchem): 321 µg/mL (≈ 495 µM); remaining at 0.5 h, 1 μM (in vitro [4]): 17.6%; remaining at 2 h, 1 μM (in vitro [4]): 3.1%; remaining at 0.5 h, 1 μM (in vitro [8]): > 100%; remaining at 2 h, 1 μM (in vitro [8]): > 100%; remaining at 0.5 h, 1 μM (in vitro [5]): 93.8%
Cc1cc(CC(NC(=O)C(CC(=O)O)NC(=O)CN)C(=O)NC(Cc2ccc(O)cc2)C(=O)NC(Cc2ccccc2)C(N)=O)cc(C)c1O (stereo not drawn) [DS-41, NH2-GDY(Dmt)YF-NH2] | – | – | – | – | – | 75.1 | 95.2 | > 100 | 99.6 | – | – | remaining at 0.5 h, 1 μM [9]: < 1%; remaining at 2 h, 1 μM [9]: < 1%; remaining at 0.5 h, 1 μM [10]: 95.8%
CC(C)CC(NC(=O)CN)C(=O)NC(Cc1ccc(O)cc1)C(=O)NC(Cc1ccc(O)cc1)C(=O)N(C)C(Cc1ccccc1)C(N)=O (stereo not drawn) [DS-48, NH2-GLYYF(N-Me)-NH2] | – | – | – | – | 1.5 | 2.8 | 20.6 | > 100 | 84.9 | significant effect of increasing AMPK phosphorylation activity | decreased the AMPK phosphorylation activity after knockdown of the adiponectin receptor 1 | cytotoxicity [11]: no toxicity; concentration dependence of AMPK phosphorylation activity (AMPK phosphorylation [7]): increased AMPK phosphorylation activity in a concentration-dependent manner; solubility at 24 h (Solubility test; PRISMA HT test buffer, pH 7.4, aqueous buffer): 334 µg/mL (≈ 495 µM); remaining at 0.5 h, 1 μM [9]: 1.1%; remaining at 2 h, 1 μM [9]: < 1%; remaining at 0.5 h, 1 μM [10]: 21.6%
CC(C)CC(NC(=O)CN)C(=O)NC(Cc1ccc(F)cc1)C(=O)NC(Cc1ccc(O)cc1)C(=O)NC(Cc1ccccc1)C(N)=O (stereo not drawn) [DS-51, NH2-GLF(4-F)YF-NH2] (H-GL[Phe(4-F)]YF-NH2; configuration not given here) | – | – | – | – | 1.3 | – | – | – | – | significant effect of increasing AMPK phosphorylation activity | decreased the AMPK phosphorylation activity after knockdown of the adiponectin receptor 1 | solubility at 24 h (physchem): 136 µg/mL (≈ 204 µM)
CC(C)CC(NC(=O)CN)C(=O)NC(Cc1ccc(Cl)cc1)C(=O)NC(Cc1ccc(O)cc1)C(=O)NC(Cc1ccccc1)C(N)=O (stereo not drawn) [DS-52, NH2-GLF(4-C1)YF-NH2] (H-GL[Phe(4-Cl)]YF-NH2; configuration not given here) | – | – | – | – | 1.2 | – | – | – | – | significant effect of increasing AMPK phosphorylation activity | decreased the AMPK phosphorylation activity after knockdown of the adiponectin receptor 1 | –

The next lines start with results.

CYP inhibition (% of control activity) CYP2C19 (CYP2C19) | CYP inhibition (% of control activity) CYP2D6 (CYP2D6) | CYP inhibition (% of control activity) CYP3A4 (CYP3A4) | solubility kinetic at 24 h (Solubility test; [12]) [µg/mL] | Compound | AMPK phosphorylation activity (fold change) (AMPK phosphorylation [1]) | remaining at 0.5 h, 1 μM [2] [%] | remaining at 0.5 h, 1 μM [3] [%] | remaining at 0.5 h, 1 μM [6] [%] | remaining at 2 h, 1 μM [6] [%] | AMPK phosphorylation activity compared to APN5 (in words) (AMPK phosphorylation [1]) | AMPK phosphorylation activity after knockdown of the adiponectin receptor 1 (adiponectin receptor 1) | other results
66.0 % of control activity | 30.3 % of control activity | 90.3 % of control activity | – | O=C(COc1ccc(C(=O)c2ccccc2)cc1)NC1CCN(Cc2ccccc2)CC1 [DS-43, adiporon, reference compound] | – | – | – | – | – | – | – | Metabolic stability (% remaining) Rat, 30 m ([2]; rat liver microsomes 0.5 mg/ml, 1 μM): 2.3 % remaining; Metabolic stability (% remaining) Mouse, 30 m ([3]; mouse liver microsomes 0.5 mg/ml, 1 μM): 3.1 % remaining; solubility kinetic at 24 h (Solubility test; PRISMA HT buffer (diluted 1:40 in distilled water), pH 7.4, pH 7.4, aqueous buffer): 43.7 µg/mL (≈ 102 µM); Plasma stability (% remaining) Rat, 30 m ([6]; rat plasma, 1 μM, 37° C., 30 m): >100 % remaining; Plasma stability (% remaining) Rat, 120 m ([6]; rat plasma, 1 μM, 37° C., 120 m): >100 % remaining; Plasma stability (% remaining) Human, 30 m ([9]; human plasma, 1 μM, 37° C., 30 m): >100 % remaining; Plasma stability (% remaining) Human, 120 m ([9]; human plasma, 1 μM, 37° C., 120 m): >100 % remaining; Metabolic stability (% remaining) Human, 30 m ([10]; human liver microsomes 0.5 mg/ml, 1 μM, NADPH, 37° C., 30 m): 54.9 % remaining
– | – | – | 157 (≈ 530 µM) | O=C(O)Cc1ccccc1Nc1c(Cl)cccc1Cl [Diclofenac] | – | – | – | – | – | – | – | –
– | – | – | 23.8 (≈ 111 µM) | Nc1ccc(/N=N/c2ccccc2)c(N)n1 [Phenazopyridine] | – | – | – | – | – | – | – | –
